The values below come from PubChem BioAssay AID248 (DTP/NCI, 2004).

Where “and” joins values, the source holds several entries; their conditions need not be identical. Identical values can stand only once. Toxic doses and inconclusive results are not listed.

For this assay, the system named is L1210 leukemia ip in BDF1 mice, survival T/C. Briefly: NCI In Vivo Anticancer Drug Screen. Data for tumor model L1210 Leukemia (intraperitoneal) in B6D2F1 (BDF1) mice. The note with it: endpoint: mean survival time, higher = longer survival. The method in brief: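 In this screen, tumor-bearing mice given compound are compared to those given vehicle, and their survival values are reported as a treated-to-control quotient.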

Setting [1] is: dose: 100.0 mg/kg/injection, schedule: Q04DX003 (ip), vehicle: Klucel (hydroxypropylcellulose) (HPC).
Setting [2] is: dose: 200.0 mg/kg/injection, schedule: Q04DX003 (ip), vehicle: Klucel (hydroxypropylcellulose) (HPC).
Setting [3] is: dose: 100.0 mg/kg/injection, schedule: Q01DX009 (ip), vehicle: Klucel (hydroxypropylcellulose) (HPC).
Where [4] appears, read: dose: 200.0 mg/kg/injection, schedule: Q01DX009 (ip), vehicle: Klucel (hydroxypropylcellulose) (HPC).
The mark [5] stands for this setting: dose: 400.0 mg/kg/injection, schedule: Q01DX009 (ip), vehicle: Klucel (hydroxypropylcellulose) (HPC).
Where [6] appears, read: dose: 400.0 mg/kg/injection, schedule: Q04DX003 (ip), vehicle: Klucel (hydroxypropylcellulose) (HPC).
[7] abbreviates: dose: 200.0 mg/kg/injection, schedule: Q01DX009 (ip), vehicle: saline with Tween-80.
Setting [8] is: dose: 100.0 mg/kg/injection, schedule: Q01DX001 (ip), vehicle: carboxymethylcellulose (CMC).
Where [9] appears, read: dose: 200.0 mg/kg/injection, schedule: Q01DX001 (ip), vehicle: carboxymethylcellulose (CMC).
The mark [10] stands for this setting: dose: 400.0 mg/kg/injection, schedule: Q01DX001 (ip), vehicle: carboxymethylcellulose (CMC).
Where [11] appears, read: dose: 100.0 mg/kg/injection, schedule: Q01DX001 (ip), vehicle: other.
Where [12] appears, read: dose: 200.0 mg/kg/injection, schedule: Q01DX001 (ip), vehicle: other.
[13] abbreviates: dose: 400.0 mg/kg/injection, schedule: Q01DX001 (ip), vehicle: other.
The mark [14] stands for this setting: dose: 100.0 mg/kg/injection, schedule: Q04DX003 (ip), vehicle: saline with Tween-80.
Where [15] appears, read: dose: 200.0 mg/kg/injection, schedule: Q04DX003 (ip), vehicle: saline with Tween-80.
The mark [16] stands for this setting: dose: 100.0 mg/kg/injection, schedule: Q01DX009 (ip), vehicle: saline.
Setting [17] is: dose: 200.0 mg/kg/injection, schedule: Q01DX009 (ip), vehicle: saline.
Setting [18] is: dose: 400.0 mg/kg/injection, schedule: Q01DX009 (ip), vehicle: saline.

In the case of `N#Cc1c(SCC(=O)O)nsc1SCC(=O)O`, the T/C by setting is: (dose: 100.0 mg/kg/injection, schedule: Q04DX002 (ip), vehicle: gum acacia) 97 % of control; (dose: 200.0 mg/kg/injection, schedule: Q04DX002 (ip), vehicle: gum acacia) 94 % of control; (dose: 400.0 mg/kg/injection, schedule: Q04DX002 (ip), vehicle: gum acacia) 100 % of control.
For the compound `C=C(C)C1CCC2CC/C(=N\Nc3ccccc3C(=O)OC)C=C2C1` (centres undefined), the T/C under setting [1] is 90 % of control and the T/C under setting [2] was 94 % of control.
Regarding `CCCCNC(=O)Nc1ccc(OC)cc1Cl`, the T/C is, setting by setting: under setting [3], 102 % of control; under setting [1], 90 % of control; under setting [4], 106 % of control; under setting [2], 97 % of control; under setting [5], 87 % of control; under setting [6], 92 % of control.
Turning to `COC(OC)C1C=CC=CC=C1`, the T/C under setting [7] was 95 % of control.
On to `O=S(=O)(CCCCl)Cc1ccccc1`, for which the T/C was 100 % of control (dose: 100.0 mg/kg/injection, schedule: Q01DX009 (ip), vehicle: other); 110 % of control (dose: 100.0 mg/kg/injection, schedule: Q04DX003 (ip), vehicle: other); 98 % of control (dose: 200.0 mg/kg/injection, schedule: Q01DX009 (ip), vehicle: other); 101 % of control (dose: 200.0 mg/kg/injection, schedule: Q04DX003 (ip), vehicle: other); 102 % of control (dose: 400.0 mg/kg/injection, schedule: Q01DX009 (ip), vehicle: other); 107 % of control (dose: 400.0 mg/kg/injection, schedule: Q04DX003 (ip), vehicle: other).
In the case of `CN(CC(=O)O)C(=N)N`, the T/C is 92 % of control under setting [8]; 94 % of control under setting [9]; 94 % of control (dose: 250.0 mg/kg/injection, schedule: Q01DX Z (ip), vehicle: saline); 97 % of control under setting [10]; 104 % of control (dose: 500.0 mg/kg/injection, schedule: Q01DX Z (ip), vehicle: saline); 107 % of control (dose: 1000.0 mg/kg/injection, schedule: Q01DX Z (ip), vehicle: saline). In addition, the T/C by setting is: (dose: 1500.0 mg/kg/injection, schedule: Q#A X Z (ip), vehicle: water) 117 % of control; (dose: 2500.0 mg/kg/injection, schedule: Q#A X Z (ip), vehicle: water) 95 % of control.
Regarding `NC1(C(=O)O)Cc2ccccc2B(O)OC1=O` (centres undefined), the T/C under setting [1] was 98 % of control, the T/C under setting [2] is 96 % of control and the T/C under setting [6] was 106 % of control.
With `CC(=O)C(Cl)C(C)=O.CC(=O)C(Cl)C(C)=O.CC(=O)CC(C)=O.[Rh]`, the T/C is, setting by setting: (dose: 50.0 mg/kg/injection, schedule: Q01DX001 (ip), vehicle: other) 102 % of control; under setting [11], 98 % of control; under setting [12], 96 % of control; under setting [13], 98 % of control.
Take `CC(=O)Oc1ccc2c(=O)c(-c3ccccc3)c(C)oc2c1`: the T/C is, setting by setting: under setting [11], 108 % of control; under setting [14], 100 % of control; under setting [12], 111 % of control; under setting [15], 108 % of control; under setting [13], 94 % of control; (dose: 400.0 mg/kg/injection, schedule: Q04DX003 (ip), vehicle: saline with Tween-80) 105 % of control.
Take `CC1c2c(ccc3c2CCC=C3)CCC1CC1=CCCc2ccc3ccccc3c21` (centres undefined): the T/C is 107 % of control under setting [16]; 103 % of control under setting [1]; 95 % of control under setting [17]; 90 % of control under setting [2]; 93 % of control under setting [18]; 95 % of control under setting [6].
Regarding `S=C(Nc1ccccn1)Nc1ccccn1`, the T/C was 96 % of control (dose: 50.0 mg/kg/injection, schedule: Q01DX009 (ip), vehicle: saline with Tween-80); 94 % of control (dose: 50.0 mg/kg/injection, schedule: Q04DX003 (ip), vehicle: Klucel (hydroxypropylcellulose) (HPC)); 96 % of control (dose: 50.0 mg/kg/injection, schedule: Q04DX003 (ip), vehicle: saline with Tween-80); 95 % of control under setting [8]; 103 % of control (dose: 100.0 mg/kg/injection, schedule: Q01DX009 (ip), vehicle: saline with Tween-80); 101 % of control under setting [14]. Moreover, the T/C under setting [9] is 95 % of control; the T/C under setting [7] is 96 % of control; the T/C under setting [2] was 87 % of control; the T/C under setting [15] was 184 % of control; the T/C under setting [10] is 92 % of control.
Regarding `O=C(Nc1ccc(Nc2ccccc2)cc1)Nc1ccccc1F`, the T/C is 97 % of control under setting [3], 95 % of control under setting [4] and 97 % of control under setting [5].
For `C1CCC2C(C1)NC1CCCCC12` (centres undefined), the T/C (dose: 100.0 mg/kg/injection, schedule: Q04DX003 (ip), vehicle: saline) is 97 % of control.
As for `COC(=O)c1cc(OC)cc(OC)c1C(=O)c1c(OC)c(Cl)c(C)c(Cl)c1OC`, the T/C runs as follows: (dose: 50.0 mg/kg/injection, schedule: Q04DX002 (ip), vehicle: saline with Tween-80) 110 % of control; (dose: 100.0 mg/kg/injection, schedule: Q04DX002 (ip), vehicle: saline with Tween-80) 95 % of control; (dose: 200.0 mg/kg/injection, schedule: Q04DX002 (ip), vehicle: saline with Tween-80) 100 % of control.
Consider `COc1ccc(NC(=O)c2ccc(C(=O)Nc3ccc(OC)cc3OC)cc2)c(OC)c1`, for which the T/C reads like this: (dose: 100.0 mg/kg/injection, schedule: Q04DX002 (ip), vehicle: Klucel (hydroxypropylcellulose) (HPC)) 90 % of control; (dose: 200.0 mg/kg/injection, schedule: Q04DX002 (ip), vehicle: Klucel (hydroxypropylcellulose) (HPC)) 93 % of control and 102 % of control; (dose: 400.0 mg/kg/injection, schedule: Q04DX002 (ip), vehicle: Klucel (hydroxypropylcellulose) (HPC)) 93 % of control and 91 % of control.
Take `NC(Cc1ncc[nH]1)C(=O)O` (centres undefined): the T/C is 104 % of control (dose: 100.0 mg/kg/injection, schedule: Q04DX002 (ip), vehicle: other); 96 % of control (dose: 200.0 mg/kg/injection, schedule: Q04DX002 (ip), vehicle: other); 119 % of control (dose: 400.0 mg/kg/injection, schedule: Q04DX002 (ip), vehicle: other).
As for `O=S(=O)(Cc1ccccc1)SSS(=O)(=O)Cc1ccccc1`, the T/C reads like this: (dose: 75.0 mg/kg/injection, schedule: Q01DX001 (ip), vehicle: saline) 98 % of control; (dose: 150.0 mg/kg/injection, schedule: Q01DX001 (ip), vehicle: saline) 106 % of control; (dose: 300.0 mg/kg/injection, schedule: Q01DX001 (ip), vehicle: saline) 95 % of control.
In the case of `Nc1cccc2ccc(S(=O)(=O)O)cc12`, the T/C is 106 % of control under setting [16], 97 % of control under setting [17] and 101 % of control under setting [18].
As for `Cc1c(C)c2c(c(C)c1O)SC(CC(=O)O)C(=O)O2` (centres undefined), the T/C reads like this: under setting [1], 100 % of control; under setting [2], 100 % of control; under setting [6], 100 % of control.
For the compound `O=NN(CCF)C(=O)Nc1ccccc1`, the T/C (dose: 18.0 mg/kg/injection, schedule: Q01DX001 (ip), vehicle: other) is 160 % of control.
